From ChEMBL document CHEMBL3272078, “Stereochemical analogs of a muscarinic, ganglionic stimulant. 3. 2,3-Substituted bicyclo(2.2.1)hept-5-enes and -heptanes related to 4-(N-(3-chlorophenyl)carbamoyloxy)-2-butynyltrimethylammonium chloride (McN-A-343)” (J Med Chem, 1976)
Activity calls are given as the source filed them. No cut-off for these calls is given here.

How the values were obtained:
Type in all cases: functional, organism-based
Felis catus [1] = experiment: Inhibition of McN-A-343-induced pressor response in iv dosed cat
Felis catus [2] = experiment: Ganglion-stimulant activity in iv dosed cat assessed as depressor response
Felis catus [3] = experiment: Ganglion-stimulant activity in cat assessed as pressor response up to 1000 ug/kg, iv

Compound	inhibition (Felis catus [1])	Activity (Felis catus [2])	Activity (Felis catus [3])
C[N+](C)(C)C[C@H]1[C@H]2CC[C@@H](C2)[C@@H]1COC(=O)Nc1ccc(Cl)cc1	inactive	inactive	inactive
C[N+](C)(C)C[C@@H]1[C@H]2CC[C@@H](C2)[C@H]1COC(=O)Nc1ccc(Cl)cc1	inactive	inactive	inactive
C[N+](C)(C)C[C@@H]1[C@H](COC(=O)Nc2ccc(Cl)cc2)[C@H]2C=C[C@H]1C2	inactive	inactive	inactive
C[N+](C)(C)C[C@H]1[C@H](COC(=O)Nc2ccc(Cl)cc2)[C@H]2C=C[C@H]1C2	inactive	inactive	inactive
C[N+](C)(C)CC#CCOC(=O)Nc1cccc(Cl)c1	–	–	Active
C[N+](C)(C)C[C@H]1[C@@H](COC(=O)Nc2ccc(Cl)cc2)[C@H]2C=C[C@H]1C2	inactive	inactive	inactive
C[N+](C)(C)C[C@@H]1[C@H]2CC[C@@H](C2)[C@@H]1COC(=O)Nc1ccc(Cl)cc1	inactive	inactive	inactive
C[N+](C)(C)C[C@H]1[C@H]2CC[C@@H](C2)[C@H]1COC(=O)Nc1ccc(Cl)cc1	inactive	inactive	inactive
C[N+](C)(C)C[C@@H]1[C@@H](COC(=O)Nc2ccc(Cl)cc2)[C@H]2C=C[C@H]1C2	inactive	inactive	inactive
